According to publication PMC4320118, “Micheliolide Derivative DMAMCL Inhibits Glioma Cell Growth In Vitro and In Vivo” (PLoS ONE, 2015):
Entries after “also recorded” stand apart in the source; their conditions may differ. Like-named read-outs stand apart in the source and are kept apart here.

Tests used:
[1] = Toxicity of DMAMCL, oral once a day for 21 days; type: in vivo, Wistar rats; parameters: Cr: unit not given here; details: for ALB / ALP / ALT / AST / CHOL / CK / Cr / GLU / TG / TP / Urea: serum
Protocol: Wistar rats (150–170 g) were divided into the following 3 groups (6 rats /group): 1) vehicle control, 2) DMAMCL at 200 mg/kg, and 3) DMAMCL at 300 mg/kg. DMAMCL was administered orally once a day for 21 days. Rats were weighed on days 0, 3, 7, 11, 14, 17, and 21. Total food intake was measured as the weight of food consumed during a 24-h period on days 3, 8, 15, and 22. On the 23rd day, rats were anesthetized and sacrificed via CO2 asphyxiation. Peripheral blood was collected for hematological and serum biochemical analyses using a blood cell counter (Medonic M16, Boule medical AB, Sweden) and a Hitachi 7180 Automatic Analyzer (Japan). Tissues samples from the liver, spleen, lung, kidney, and brain were collected and embedded in paraffin for H&E staining.

[2] = Biodistribution of DMAMCL in rats after a single oral dose (UPLC-MS/MS); type: in vivo, Wistar rats; parameters: Mean concentration in brain: unit not given here; details: single oral dose 100 mg/kg
Protocol: All rats had free access to food and water. Before drug administration, rats were fasted for 12 h and water was freely available.
Aqueous DMAMCL solutions were administered orally (100 mg/kg) (n = 6 rats per group). Blood and tissue samples from rats were collected at the setting time and analyzed on an ultraperformance liquid chromatography-mass spectrometry (UPLC-MS/MS) system (Waters/Micromass, Milford, MA) using noncompartmental analyses. All the biological specimens were detected at once or stored at -80°C for detection.

[3] = Locomotor activity (neurological effects); type: in vivo, Wistar rats
Protocol: Locomotor activity was used to assess neurological effects of DMAMCL. Wistar rats (150–170 g) were divided into the following 3 groups (10 rats /group): 1) vehicle control, 2) DMAMCL at 100 mg/kg, and 3) DMAMCL at 300 mg/kg. DMAMCL was administered orally once a day for 21 days. Rat locomotor activities were monitored on days 1, 10, 21 and 28 using Aninal Behavioral Analysis System (AniLab Software and Instruments Co, Ltd, China). Briefly, rats were gently placed in the locomotor activity boxes equipped with infrared photobeams and individual total distance (cm) of rat running was recorded during a test period of 60 min. The test apparatus was cleaned to eliminate odors for the next test after each animal was tested.

C6 cells = assay: Cell proliferation MTT assay, C6; type: cell-based; details: Rattus norvegicus, 72 h
Protocol: C6 and U-87MG cell lines were obtained from the American Type Culture Collection (ATCC) and cultured in our laboratory. Rat C6 glioma cells were cultured in F12K nutrient medium (Gibco, Grand Island, […]) supplemented with 15% horse serum (Auckland, NZ), 2.5% fetal bovine serum (FBS), 100 U/mL penicillin, and […] streptomycin (Gibco, Paisley, Scotland, UK). Human U-87MG cells were cultured in minimum essential medium (MEM) supplemented with 10% FBS, 1% nonessential amino acids, 100 U/mL penicillin, and […] streptomycin. Cells were cultured under a humidified atmosphere containing 5% CO2 at 37°C, and medium was changed every 1 to 2 days.
Tumor cells were seeded in 96-well plates at a density of 3500 cells/well. After 24 h in culture, cells were exposed to different concentrations of DMAMCL or medium alone (control) for 72 h. Cell viability was determined by MTT assays. Briefly, MTT regent (0.5 mg/mL) was added to wells, and cells were incubated for 4 h at 37°C. After removing the supernatant, 200 μL of dimethyl sulfoxide (DMSO) (Fluka, Switzerland) was added to dissolve formazan crystals. The absorbance at 570 nm was measured by a microplate reader (Thermo Labsystems, Helsinki, Finland). Control absorbance was taken as 100%. The absorbance of DMAMCL-treated cells was taken as percentage survival. […]

[4] = 200 mg/kg orally once a day for 21 days
[5] = 300 mg/kg orally once a day for 21 days

CC1=C2CC[C@@](C)(O)[C@@H]2[C@H]2OC(=O)[C@@H](CN(C)C)[C@@H]2CC1 [DMAMCL, dimethylaminomicheliolide]
GRAN% [1, 4]: 26.5 ± 3.3% | HCT% [1, 4]: 35.6 ± 1.2% | HGB [1, 4]: 145 ± 12.3 g/L | LYM% [1, 4]: 71.3 ± 6.3% | MCV [1, 4]: 55.5 ± 1.4 fL | MONO% [1, 4]: 2.1 ± 0.3% | PLT [1, 4]: 1195 ± 87 ×10^9/L | RBC [1, 4]: 6.73±1.3 ×10^12/L | RDW% [1, 4]: 18.5 ± 1.1% | WBC [1, 4]: 12.5 ± 2.5 ×10^9/L | GRAN% [1, 5]: 26.3 ± 4.1% | HCT% [1, 5]: 37.7 ± 0.8% | HGB [1, 5]: 140 ± 11.1 g/L | LYM% [1, 5]: 69.9 ± 6.0% | MCV [1, 5]: 53.5 ± 2.3 fL | MONO% [1, 5]: 2.9 ± 0.9% | PLT [1, 5]: 1132 ± 82 ×10^9/L | RBC [1, 5]: 6.37 ± 1.01 ×10^12/L | RDW% [1, 5]: 17.8 ± 0.7% | WBC [1, 5]: 11.9 ± 1.3 ×10^9/L | Toxicity (body weight, daily food intake, histopathology, hematology, serum biochemistry) ([1]; 200 or 300 mg/kg orally once a day for 21 days): did not result in toxicity; also recorded: No significant changes were observed; also recorded: did not lead to toxicity | ALB [1, 4]: 32.5 ± 3.01 g/L | ALP [1, 4]: 190 ± 19 U/L | ALT [1, 4]: 51 ± 10 U/L | AST [1, 4]: 98 ± 12 U/L | CHOL [1, 4]: 1.39 ± 0.67 mM | CK [1, 4]: 423 ± 35 U/L | Cr [1, 4]: 79 ± 23 | GLU [1, 4]: 5.22 ± 2.01 mM | TG [1, 4]: 0.81 ± 0.23 mM | TP [1, 4]: 61.0 ± 4.6 g/L | Urea [1, 4]: 6.45 ± 2.3 mM | ALB [1, 5]: 34 ± 1.98 g/L | ALP [1, 5]: 179 ± 30 U/L | ALT [1, 5]: 49 ± 11 U/L | AST [1, 5]: 111 ± 15 U/L | CHOL [1, 5]: 1.42 ± 0.78 mM | CK [1, 5]: 523 ± 101 U/L | Cr [1, 5]: 80 ± 17 | GLU [1, 5]: 5.23 ± 1.34 mM | TG [1, 5]: 0.69 ± 0.33 mM | TP [1, 5]: 58.3 ± 3.3 g/L | Urea [1, 5]: 7.33 ± 1.02 mM | Kp at 0.083 h ([2]; Wistar, rat, brain, rats, 0.083h, read-out: C brain / C plasma): 1.45 | Kp at 0.5 h ([2]; Wistar, rat, brain, rats, 0.5h, read-out: C brain / C plasma): 1.84 | Kp at 3 h ([2]; Wistar, rat, brain, rats, 3h, read-out: C brain / C plasma): 1.91 | concentration at 3 h ([2]; Wistar, rat, brain, read-out: Concentration in rat brain): 4.91 ± 0.869 µg/mL | Tmax ([2]; Wistar, rat, brain, read-out: Time of peak concentration in rat brain): 30 min | concentration at 3 h ([2]; Wistar, rat, plasma, read-out: Concentration in plasma): 2.57 ± 0.968 µg/mL | Concentration in brain compared with plasma ([2]; rats): higher in the brain than in plasma | Concentration in tissues compared with plasma ([2]; rats): dramatically higher in almost all tissues than in plasma | Mean concentration in brain ([2]; rats, 0.083h): 6360 | Mean concentration in plasma ([2]; rats, 0.083h): 4373 µg/mL | Mean concentration in brain ([2]; rats, 0.5h): 18970 | Mean concentration in plasma ([2]; rats, 0.5h): 10310 µg/mL | Mean concentration in brain ([2]; rats, 3h): 4913 | Mean concentration in plasma ([2]; rats, 3h): 2567 µg/mL | Peak concentration in rat brain ([2]; 0.5 hours after administration): 18970 ± 9603 ng/mL | Locomotor activity ([3]; 100mg/kg orally once a day for 21 days, observation period): as active as vehicle group | Locomotor activity, total distance ([3]; 300mg/kg orally once a day, following days): still less active than vehicle group, but without significant statistical difference | Locomotor activity, total distance ([3]; 300mg/kg orally, first day): decreased compared with vehicle group | Locomotor activity, total distance ([3]; 300mg/kg, within one week of DMAMCL withdrawal): no significant changes were observed | IC50 (C6 cells; read-out: IC50): 27.2 ± 1.89 µM | IC50 (C6 cells; read-out: x0 (midpoint of logistic fit, Fig 3A) (converted)): 27.2 ± 1.89 µM
